The data set can be described thus: Color of the formulations: colorimetry of thin films on contrast map (spectro-colorimeter Minolta CM2600D), L*a*b* system. It is filed as physicochemical. The following applies: result in words; equivalent formulations (2 % merocyanine). Here is the method: Protocol for evaluating the color of the formulations
The color of the formulations was evaluated after preparation of thin films on contrast map. The formulations were deposited within a circle of 2.2 cm of diameter and planed to obtain thicknesses of reproducible deposit. The colorimetric measures were then made by means of a spectro-colorimeter Minolta CM2600D in two points of the film. This operation is twice reproduced, which leads to 4 experimental values by formulation.
The results are expressed in the system (L *, has *, b *) in which L* represents the luminance, a* represents the red-green axis (-a* = green, +a* = red) and b* represents the yellow-blue axis (-b* blue, +b* yellow). So, a* and b* express the shade of the compound.
The difference of color ΔE* was calculated from the variations ΔL*, Δa* et Δb* between the compound (2) and the compound MC11 with the following equation : ((ΔE*))^2 = ((ΔL*))^2 + ((Δa*))^2 + ((Δb*))^2 [formula] • ΔL* = L* formulation with compound MC11 - L* formulation with compound (2) • Δa* = a* formulation with compound MC11 - a* formulation with compound (2) • Δb* = b* formulation with compound MC11 - b* formulation with compound (2)
We consider that the difference of color between the two compounds is significant if ΔE* > 2.

Consider `CCOCCOC(=O)/C(C#N)=C1\C=C(NCCCOC)CCC1` [Compound (2), 2-ethoxyethyl (2Z)-cyano{3-[(3-methoxypropyl)amino]cyclohex-2-en-1-ylidene}ethanoate], for which the “color compared with compound MC11 of WO2008/090066” value was “significantly less yellow”.

The record behind these values is EP2945607B1, “COSMETIC OR DERMATOLOGICAL EMULSION COMPRISING A MEROCYANINE AND AN EMULSIFYING SYSTEM CONTAINING AN ALKALI METAL SALT OF A PHOSPHORIC ACID ESTER OF A FATTY ALCOHOL” (L'Oréal, priority 2013, dated 2014).
